Results: PubChem BioAssay AID1159560 (GlaxoSmithKline (GSK), 2015)
The source made the active and inactive calls. How the calls were made is not given here.

system: Leishmania donovani growth inhibition; experiment: antileishmanial activity against L. donovani parasites (AID 1159560);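 further: parasites exposed to compound for 72 h before the viability read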

| Compound | IC50 |
| --- | --- |
| COc1ccc(NS(=O)(=O)c2ccc(S(=O)(=O)N(C)C3CCCCC3)cc2)c2ncccc12 | > 50 µM (inactive) |
| CCN(Cc1cccs1)C(=O)CSc1nnc(-c2ccc3c(c2)OCO3)o1 | 3.2 µM |
| CC(C)COC(=O)Nc1ccc(N2CCC(CNS(=O)(=O)c3ccccc3)CC2)c(F)c1 | 4 µM |
| O=S(=O)(c1ccccc1C(F)(F)F)N1CCN(Cc2ccc(-n3ccnc3)cc2)CC1 | 6.3 µM |
| Cc1nn(-c2ccccc2)nc1CNC(=O)CN(Cc1ccccn1)Cc1ccccn1 | 7.9 µM |
| COc1ccc(C(C)N(C)c2ncc3c(N)nc(N)nc3n2)cc1F (stereo not drawn) | 4 µM |
| Cc1sc(C)c(C(F)(F)F)c1CNCCCNc1cc(=O)c2ccccc2[nH]1 | > 50 µM (inactive) |
| CN(Cc1cc2ccccc2s1)c1ncc2c(N)nc(N)nc2n1 | 32 µM |
| O=C(CN1CCC2(O)CCCCC2C1c1ccc2c(c1)OCO2)Nc1ccc(Cl)cc1Cl (stereo not drawn) | 5 µM |
| N#Cc1cc(-c2ccnc(Nc3cccc(CN4CCOCC4)c3)n2)ccc1NCCN | 4 µM |
| COc1cccc(CCNC(=O)C(c2cn[nH]c2)N2CCN(c3ccc(Cl)cc3)CC2)c1 (stereo not drawn) | 13 µM |
| CC(C)(C)CC(=O)NCCc1csc(-c2ccc(F)cc2)n1 | > 50 µM (inactive) |
| Cc1cc(Nc2ccc(C#N)c(Cl)c2C)n[nH]1 | 50 µM |
| COc1ccccc1-c1c(C)[nH]c2nc(N)nc(C)c12 | 13 µM |
| O=C(NCC1CCCCC1)c1cnns1 | 13 µM |
| Cc1ccccc1CNC(=O)CN(Cc1ccccn1)Cc1ccccn1 | 10 µM |
| COc1ccc(C)cc1-c1csc(NC(=O)C(C)n2ccnc2)n1 (stereo not drawn) | 3.2 µM |
| CN(C)Cc1ccc(-c2ccc(S(=O)(=O)NCC3CCCO3)c(F)c2)cc1 (stereo not drawn) | > 63 µM (inactive) |
| N#Cc1ccc(Br)cc1[N+](=O)[O-] | 7.9 µM |
| COc1ccc(-c2csc(NC(=O)c3ccc([N+](=O)[O-])s3)n2)cc1 | 3.2 µM |
| CNC(=O)Oc1ccc(C(=O)NCc2ccccc2)cc1OC(=O)NC | > 50 µM (inactive) |
| Cn1nc([N+](=O)[O-])nc1Oc1ccc(C(=O)c2ccccc2)cc1 | > 50 µM (inactive) |

| Compound | IC50 |
| --- | --- |
| Cc1[nH]n2c(=O)c3c(nc2c1-c1ccc(Cl)cc1)CCCC3 | 1.3 µM |
| CC(=O)Nc1ccc(-c2csc(NC(=O)c3ccc([N+](=O)[O-])s3)n2)cc1 | 0.4 µM |
| Cc1[nH]n2c(=O)c3c(nc2c1-c1ccc(Br)cc1)CCCC3 | 10 µM |
| COc1cccc(C(=O)[C@H]2C[C@@H]2CN(Cc2ccccn2)Cc2ccccn2)c1 | 7.9 µM |
| COc1cc(C2SCC(=O)Nc3c2c(C)nn3-c2nc3ccccc3s2)cc(OC)c1O (stereo not drawn) | 6.3 µM |
| N#CN1CC[C@@H](NC(=O)Nc2ccccc2Oc2ccccc2)C1 | 3.2 µM |
| CCN(C)Cc1ccc(N2CCC(NS(=O)(=O)c3ccc4c(c3)CCO4)CC2)nc1 | > 50 µM (inactive) |
| Cc1ccc(S(=O)(=O)Nc2ccc(CN3CCN(C(=O)c4cccc(C)c4)CC3)cc2)cc1 | 25 µM |
| O=C(CSc1ccc(-c2ccccn2)nn1)Nc1ccc(Cl)cc1 | > 50 µM (inactive) |
| c1ccc(Nc2nc(-c3ccccn3)cc(N3CCOCC3)n2)cc1 | 6.3 µM |
| COc1cc(Cl)c(C)cc1NC(=O)c1ccc([N+](=O)[O-])s1 | 7.9 µM |
| Cc1cc(NC(=O)C2CCCCC2)n(-c2nc3c(c(=O)[nH]2)CCC3)n1 | 0.04 µM |
| CN(Cc1ccc(F)cc1)c1ccc(OCC(=O)N2CCCCC2c2cccnc2)nn1 (stereo not drawn) | 16 µM |
| COc1cccc2sc(CN(C)C(=O)C3CNCCN3c3ccc(F)cc3)c(C)c12 (stereo not drawn) | 32 µM |
| NC(=O)c1cc(F)ccc1Nc1nc(NC2CCC(O)CC2)ncc1Br (stereo not drawn) | 1.6 µM |
| O=C(Cc1ccc2c(c1)CCC2)Nc1n[nH]c(-c2ccccn2)n1 | 7.9 µM |
| Cc1cc(-c2cccc3ccccc23)nc2nc(N)nc(N)c12 | 2 µM |
| N#Cc1ccc(C(=O)Nc2cccc(-c3cccc(CN4CCC(O)CC4)c3)c2)cc1 | > 50 µM (inactive) |
| CN(CC1CCCO1)S(=O)(=O)c1ccc(C(=O)Nc2nc(-c3ccccn3)cs2)cc1 (stereo not drawn) | 1.3 µM |
| NC(=O)c1cc(NC(=O)c2ccccc2COc2ccccc2)ccc1Cl | 7.9 µM |
| CCOC(=O)c1noc(N)c1-c1ccccc1 | > 50 µM (inactive) |
